Results taken from patent US6011070A, “Slow-onset, long-lasting dopamine reuptake blockers” (priority 1997, dated 2000).
Where two headings read alike, the source gives them in different places.

What was measured:
[1] = target: T1, dopamine transporter (Rattus norvegicus, UniProt P23977); assay: Inhibition of dopamine reuptake (Example 4); format: biochemical
T1 construct: from tissue

[2] = system: male rhesus monkeys; details: for Rates of cocaine self-administration, % of control levels: 30 min pretreatment
[3] = target: T1, dopamine transporter; assay: Inhibition of binding of dopamine to the dopamine transporter (Example 4)
[4] = system: male Swiss-Webster mice; assay: Dose response study of induced locomotor stimulation (Digiscan), 1 h session (Example 2); format: in vivo, Swiss-Webster mice (Hsd:ND4); details: IP, locomotor activity
Procedure: A dose response study of induced locomotor stimulation was conducted according to the following procedure. The study was conducted using a 16 or 32 Digiscan locomotor activity testing chambers (40.5×40.5×30.5 cm) housed in sets of two, within sound-attenuating chambers. A panel of infrared beams (16 beams) and corresponding photodetectors were located in the horizontal direction along the sides of each activity chamber. A 15-W incandescent light above each chamber provided dim illumination. Fans provided an 80-dB ambient noise level within the chamber. Separate groups of 8 non-habituated male Swiss-Webster mice (Hsd:ND4, aged 2-3 months) were injected via the intraperitoneal (IP) route with either vehicle (deionized water for Compounds 1-4, carboxymethylcellulose for Compound 6 or methyl cellulose for Compound 7)) or test compound (1, 2.5, 5, 10, 25 or 50 mg/kg for Compound 3; 1, 3, 10 and 30 mg/kg for Compounds 1, 2 and 4; 3, 10, 30 or 100 mg/kg for Compound 6; and 1, 3, 10, 30 and 100 mg/kg for Compound 7). Compounds 1-4 were injected immediately prior to locomotor activity testing. […] In all studies, horizontal activity (interruption of photocell beams) was measured for 1 hour within 10 minute periods. Testing was conducted with one mouse per activity chamber.
FIGS. 1, 3, 5 and 7 show average horizontal activity counts/10 minutes as a function of time, immediately following injection of Compound 1, Compound 2, Compound 3 and Compound 4, respectively. FIGS. 13 and 15 show average horizontal activity counts/10 minutes as a function of time, beginning twenty minutes following injection of Compound 6 and Compound 7, respectively. The period 30-60 minutes was selected for analysis of dose-response data. Using TableCurve 2D v2.03 software (Jandel Scientific), the mean average horizontal activity counts/10 minutes for this period were fit to a 3-parameter logistic peak function of log10 dose (with the constant set to 1989, the mean of the vehicle-treated group), and the maximum effect estimated from the resulting curve. […] FIGS. 2, 4, 6, 8, 14 and 16 show average horizontal activity counts/10 minutes over 30 minutes versus the amount administered of Compound 1, Compound 2, Compound 3, Compound 4, Compound 6 and Compound 7, respectively.

[5] = system: squirrel monkeys; assay: Locomotor response in primates (Example 5); format: in vivo
[6] = system: squirrel monkeys; assay: Locomotor response in primates (Example 5); format: in vivo; remark: listed apart in the source
Procedure: Compound 1 was tested for its ability to induce a locomotor response in primates according to procedures disclosed in Rosenzweig-Lipson et al., Psychopharmacology 107:186 (1992). Three squirrel monkeys were administered 1.0 mg/kg of Compound 1. […] The results for each monkey are shown below in Table III and is presented as the responses per second on each day of the test. Controls were established by testing each monkey prior to administering Compound 1.

[7] = system: monkeys; assay: Previous evaluation, Task I: Drug Discrimination; format: in vivo
Excerpt: It is of interest to compare the results of the present study with the results of our previous evaluation of Compound 1 in Task I: Drug Discrimination. […] Higher doses of Compound 1 were not examined in the present study.

T1 sequence (P23977 whole entry): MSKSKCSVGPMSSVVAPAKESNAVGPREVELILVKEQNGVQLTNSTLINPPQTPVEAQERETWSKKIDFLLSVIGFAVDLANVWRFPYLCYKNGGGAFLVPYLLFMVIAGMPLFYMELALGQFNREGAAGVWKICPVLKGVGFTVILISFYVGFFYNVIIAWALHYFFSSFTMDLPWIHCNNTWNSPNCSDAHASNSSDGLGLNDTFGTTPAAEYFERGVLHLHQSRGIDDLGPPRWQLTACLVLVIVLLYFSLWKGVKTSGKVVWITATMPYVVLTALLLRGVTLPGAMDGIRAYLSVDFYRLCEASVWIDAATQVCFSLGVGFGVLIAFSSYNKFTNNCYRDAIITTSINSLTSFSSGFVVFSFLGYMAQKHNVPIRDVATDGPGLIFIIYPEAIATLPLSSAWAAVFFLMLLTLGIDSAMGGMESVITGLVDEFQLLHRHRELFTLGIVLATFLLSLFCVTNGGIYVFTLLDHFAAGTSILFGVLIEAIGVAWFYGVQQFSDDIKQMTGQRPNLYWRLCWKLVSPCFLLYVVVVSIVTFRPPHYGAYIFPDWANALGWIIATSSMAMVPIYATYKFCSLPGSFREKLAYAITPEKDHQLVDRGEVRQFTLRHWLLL

Structure (SMILES): CN(C)C1CC(c2ccc(Cl)c(Cl)c2)c2ccccc21 (stereo not shown) [Compound 1, N,N-dimethyl-3-(3',4'-dichlorophenyl)-1-indanamine]
- Uptake/Binding ([1]; ratio of IC50 values): 1.19
- IC50 ([1]; read-out: DA Uptake, inhibition of dopamine reuptake IC50): 56 nM
- Rates of cocaine self-administration, % of control levels ([2]; 3.2 mg/kg Compound 1 i.m.): approximately 25 % of control levels
- Rates of cocaine self-administration and food-maintained responding across cocaine unit doses ([2]; 3.2 mg/kg Compound 1 i.m., all three monkeys): decreased rates of cocaine self-administration across a wide range of cocaine unit doses while producing relatively minor effects on food-maintained responding
- Rates of food-maintained responding ([2]; 3.2 mg/kg Compound 1 i.m., monkey 89B056): usually unaffected
- Rates of food-maintained responding ([2]; 3.2 mg/kg Compound 1 i.m., monkey J3A): small and inconsistent changes
- Cocaine unit doses at which self-administration rates were decreased ([2]; 3.2 mg/kg Compound 1 i.m., monkey WH8): 0.001-0.01 mg/kg/inj
- Rates of food-maintained responding, % of control levels ([2]; 3.2 mg/kg Compound 1 i.m., monkey WH8, first food component): approximately 30 % of control levels
- Rates of food-maintained responding ([2]; 3.2 mg/kg Compound 1 i.m., monkey WH8, second food component): unaffected
- Range of cocaine doses across which self-administration was decreased ([2]; 3.2 mg/kg Compound 1 i.m., three monkeys): one to two
- Rates of cocaine self-administration, % of control levels ([2]; 0.1-1.0 mg/kg Compound 1 i.m.): 50-75 % of control levels
- Overt behavioral effects ([2]; Compound 1, 0.1-3.2 mg/kg i.m., prior to or during test session): did not produce noticeable overt behavioral effects
- IC50 [3]: 47 nM
- Maximal Effect Relative to Cocaine [4]: 0.82
- ED50 ([4]; Mus musculus, 30-60 min period, read-out: ED50 (dose producing 1/2 maximal stimulant activity)): 4.88 mg/kg
- Onset of locomotor response ([5]; 1.0 mg/kg Compound 1, 25 minute intervals): slow onset locomotor response
- Number of Responses/Second ([5]; 1.0 mg/kg Compound 1, Day 1, Monkey 4 (control 1.15)): 1.63 responses/second
- Number of Responses/Second ([5]; 1.0 mg/kg Compound 1, Day 1, Monkey 5 (control 0.51)): 0.76 responses/second
- Number of Responses/Second ([5]; 1.0 mg/kg Compound 1, Day 2, Monkey 5 (control 0.51)): 1.50 responses/second
- Number of Responses/Second ([5]; 1.0 mg/kg Compound 1, Day 2, Monkey 6 (control 0.93)): 1.31 responses/second
- Number of Responses/Second ([5]; 1.0 mg/kg Compound 1, Day 3, Monkey 4 (control 1.15)): 1.92 responses/second
- Number of Responses/Second ([5]; 1.0 mg/kg Compound 1, Day 3, Monkey 5 (control 0.51)): 1.51 responses/second
- Number of Responses/Second ([5]; 1.0 mg/kg Compound 1, Day 3, Monkey 6 (control 0.93)): 1.40 responses/second
- Number of Responses/Second ([5]; 1.0 mg/kg Compound 1, Day 4, Monkey 6 (control 0.93)): 1.16 responses/second
- Number of Responses/Second ([5]; 1.0 mg/kg Compound 1, Day 5, Monkey 5 (control 0.51)): 0.82 responses/second
- Number of Responses/Second ([5]; 1.0 mg/kg Compound 1, Day 5, Monkey 6 (control 0.93)): 1.14 responses/second
- Number of Responses/Second ([5]; 1.0 mg/kg Compound 1, Day 6, Monkey 5 (control 0.51)): 0.62 responses/second
- Number of Responses/Second ([5]; 1.0 mg/kg Compound 1, Day 7, Monkey 5 (control 0.51)): 0.60 responses/second
- Time of peak of locomotor response ([6]; 1.0 mg/kg Compound 1): three
- Number of Responses/Second ([6]; 1.0 mg/kg Compound 1, Day 1, Monkey 6 (control 0.93)): 1.01 responses/second
- Number of Responses/Second ([6]; 1.0 mg/kg Compound 1, Day 2, Monkey 4 (control 1.15)): 1.72 responses/second
- Number of Responses/Second ([6]; 1.0 mg/kg Compound 1, Day 4, Monkey 4 (control 1.15)): 1.06 responses/second
- Number of Responses/Second ([6]; 1.0 mg/kg Compound 1, Day 4, Monkey 5 (control 0.51)): 1.01 responses/second
- Number of Responses/Second ([6]; 1.0 mg/kg Compound 1, Day 5, Monkey 4 (control 1.15)): 1.05 responses/second
- Effect on response rates ([7]; Compound 1, 3.2 mg/kg): little effect on response rates in two monkeys, increased response rates in one monkey, and eliminated responding in only one monkey
- Effect on responding, feeding and behavior ([7]; Compound 1, 10 mg/kg, one monkey): eliminated operant responding, decreased free feeding and produced overt behavioral effects including hyperactivity and agitation for several days
- Effect on response rates ([7]; Compound 1, doses up to 1.0 mg/kg): little or no effect on response rates
